Laboratory results: ChEMBL document CHEMBL5338722, “Optical-Controlled Kinetic Switch: Fine-Tuning of the Residence Time of an Antagonist Binding to the Vasopressin V2 Receptor in In Vitro, Ex Vivo, and In Vivo Models of ADPKD” (J Med Chem, 2023)
Active and inactive are the calls of the source. The calls are words filed in the database; no cut-off is given here.

How the values were obtained:
Vasopressin V2 receptor [1] = molecular target: T1, Vasopressin V2 receptor (Homo sapiens, UniProt P30518); assay: Displacement of conivaptan-red fluorescent probe from SNAP-tagged human vasopressin V2 receptor expressed in HEK293 cells compound pre-illuminated for 10 mins with light at 435 nm and further incubated for 1 hr by HTRF assay; type: cell-based
T1 sequence (P30518 whole entry): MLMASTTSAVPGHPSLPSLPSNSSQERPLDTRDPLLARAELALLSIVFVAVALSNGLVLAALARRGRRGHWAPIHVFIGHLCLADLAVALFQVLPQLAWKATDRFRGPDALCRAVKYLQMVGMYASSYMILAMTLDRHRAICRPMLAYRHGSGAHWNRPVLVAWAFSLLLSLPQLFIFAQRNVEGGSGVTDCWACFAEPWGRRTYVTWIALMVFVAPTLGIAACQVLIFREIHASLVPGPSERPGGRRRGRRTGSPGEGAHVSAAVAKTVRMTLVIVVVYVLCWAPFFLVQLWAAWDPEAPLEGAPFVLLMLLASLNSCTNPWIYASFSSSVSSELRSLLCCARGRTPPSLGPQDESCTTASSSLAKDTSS

Vasopressin V2 receptor [2] = molecular target: T1, Vasopressin V2 receptor; assay: Displacement of conivaptan-red fluorescent probe from SNAP-tagged human vasopressin V2 receptor expressed in HEK293 cells compound pre-illuminated for 10 mins with light at 365 nm and further incubated for 1 hr by HTRF assay; type: cell-based
Vasopressin V2 receptor [3] = molecular target: T1, Vasopressin V2 receptor; assay: (§1) Displacement of conivaptan-red fluorescent probe from SNAP-tagged human vasopressin V2 receptor expressed in HEK293 cells assessed as kinetic rate index by measuring ratio of binding of labeled probe at 15 mins to 60 mins at IC50 compound pre-illuminated for 10 mins with light at 435 nm by dual-point competition association assay; type: cell-based; details: filed as antagonist
Mus musculus [4] = assay: (§2) In vivo inhibition of renal cystogenesis in Pkd1 knock-out autosomal dominant polycystic kidney disease mouse model assessed as reduction in kidney size at 5 mg/kg, sc administered once daily for 7 days compound pre-irradiated with light at 435 nm prior to administration; type: functional, organism-based; details: time 7.0 day
[5] = In vivo inhibition of renal cystogenesis in Pkd1 knock-out autosomal dominant polycystic kidney disease mouse model assessed as disease progression at 5 mg/kg, sc administered once daily for 7 days compound pre-irradiated with light at 435 nm prior to administration; type: functional; set-up: scale not given: the % may be the effect or the level left; details: time 7 day
[6] = Drug uptake in Sprague-Dawley rat kidney at 0.1 uM treated for 30 mins followed by extensive drug wash-out for 4 hrs by LC-MS analysis; type: ADME, tissue-based; details: in vivo, 0.5 h
Kidney [7] = assay: Ex vivo target occupancy at vasopressin V2 receptor in Sprague-Dawley rat kidney assessed as endurance in retention time by measuring half life at 0.1 uM treated for 30 mins followed by extensive drug wash-out for 240 mins by LC-MS analysis; type: functional, tissue-based
[8] = molecular target: Vasopressin V1a receptor (Homo sapiens) (UniProt P37288); assay: Displacement of [3H]vasopressin from human V1A receptor expressed in CHO cell membranes at 1 uM compound pre-illuminated for 10 mins with light at 435 nm by radioligand displacement assay relative to control; details: Membrane
Chain of Vasopressin V1a receptor (Homo sapiens) (P37288 whole entry, looked up): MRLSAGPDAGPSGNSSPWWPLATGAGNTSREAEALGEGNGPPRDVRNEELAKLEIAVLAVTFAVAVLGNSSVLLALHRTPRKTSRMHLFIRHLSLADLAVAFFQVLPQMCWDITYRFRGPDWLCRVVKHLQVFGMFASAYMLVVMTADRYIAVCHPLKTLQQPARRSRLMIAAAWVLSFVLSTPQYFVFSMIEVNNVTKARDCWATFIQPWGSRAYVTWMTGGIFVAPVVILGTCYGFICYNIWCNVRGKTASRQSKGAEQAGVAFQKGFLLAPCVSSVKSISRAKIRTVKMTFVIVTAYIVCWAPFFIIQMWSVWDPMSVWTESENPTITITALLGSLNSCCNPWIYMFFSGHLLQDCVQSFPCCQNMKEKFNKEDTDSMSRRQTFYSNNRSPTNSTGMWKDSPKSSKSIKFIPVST

Vasopressin V2 receptor [9] = molecular target: T1, Vasopressin V2 receptor; assay: Displacement of conivaptan-red fluorescent probe from SNAP-tagged human vasopressin V2 receptor expressed in HEK293 cells assessed as residence time at 1 uM compound pre-illuminated for 10 mins with light at 435 nm by dual-point competition association assay; type: cell-based; details: filed as antagonist
Vasopressin V2 receptor [10] = molecular target: T1, Vasopressin V2 receptor; assay: Antagonist activity at human vasopressin V2 receptor expressed in CHO cells assessed as inhibition of AVP-induced cAMP production at 1 uM preincubated for 30 mins followed by two consecutive washouts and irradiated with light at 365 nm during two washouts; type: functional, cell-based; details: filed as antagonist
Vasopressin V2 receptor [11] = molecular target: T1, Vasopressin V2 receptor; assay: Displacement of conivaptan-red fluorescent probe from SNAP-tagged human vasopressin V2 receptor expressed in HEK293 cells assessed as off-rate constant at 1 uM compound pre-illuminated for 10 mins with light at 435 nm by dual-point competition association assay; type: cell-based; details: filed as antagonist
Vasopressin V2 receptor [12] = molecular target: T1, Vasopressin V2 receptor; assay: (§3) Antagonist activity at human vasopressin V2 receptor expressed in CHO cells assessed as inhibition of vasopressin induced cAMP production at 10 times Ki preincubated for 30 mins followed by two consecutive washouts and irradiated with light at 365 nm during two washouts; type: functional, cell-based
Kidney [13] = assay: Ex vivo inhibition of renal cystogenesis in ADPKD C57BL/6 mouse kidney assessed as suppression of 8-Br-cAMP-induced cyst development at 10 uM measured after 4 days in presence of 8-Br-cAMP by inverted microscopic analysis; type: functional, tissue-based; details: time 4.0 day
Vasopressin V2 receptor [14] = molecular target: T1, Vasopressin V2 receptor; assay: Displacement of conivaptan-red fluorescent probe from SNAP-tagged human vasopressin V2 receptor expressed in HEK293 cells assessed as on-rate constant at 1 uM compound pre-illuminated for 10 mins with light at 435 nm by dual-point competition association assay; type: cell-based; details: filed as antagonist
Vasopressin V2 receptor [15] = molecular target: T1, Vasopressin V2 receptor; assay: (§4) Displacement of conivaptan-red fluorescent probe from SNAP-tagged human vasopressin V2 receptor expressed in HEK293 cells assessed as residence time at 0.1 uM compound pre-illuminated for 10 mins with light at 365 nm by dual-point competition association assay; type: cell-based; details: filed as antagonist
[16] = molecular target: Vasopressin V1a receptor (Homo sapiens) (UniProt P37288); assay: Displacement of [3H]vasopressin from human V1A receptor expressed in CHO cell membranes at 1 uM compound pre-illuminated for 10 mins with light at 365 nm by radioligand displacement assay relative to control; details: Membrane
Vasopressin V2 receptor [17] = molecular target: T1, Vasopressin V2 receptor; assay: Displacement of conivaptan-red fluorescent probe from SNAP-tagged human vasopressin V2 receptor expressed in HEK293 cells assessed as off-rate constant at 0.1 uM compound pre-illuminated for 10 mins with light at 365 nm by dual-point competition association assay; type: cell-based; details: filed as antagonist
Vasopressin V2 receptor [18] = molecular target: T1, Vasopressin V2 receptor; assay: Displacement of conivaptan-red fluorescent probe from SNAP-tagged human vasopressin V2 receptor expressed in HEK293 cells assessed as on-rate constant at 0.1 uM compound pre-illuminated for 10 mins with light at 365 nm by dual-point competition association assay; type: cell-based; details: filed as antagonist
Vasopressin V2 receptor [19] = molecular target: T1, Vasopressin V2 receptor; assay: as §3, with “in first 30 mins of washout and with light at 435 nm in second 30 mins of washout” for “during two washouts”; type: functional, cell-based
[20] = molecular target: Serine/threonine-protein kinase mTOR (Homo sapiens) (UniProt P42345); assay: (§5) Inhibition of mTOR (unknown origin) assessed as inhibition of p70S6K phosphorylation at 10 times Ki preincubated for 30 mins followed by two consecutive washouts and irradiated with light at 365 nm during two washouts by Western blot analysis
Vasopressin V2 receptor [21] = molecular target: T1, Vasopressin V2 receptor; assay: as §1, with “365” for “435”; type: cell-based; details: filed as antagonist
Mus musculus [22] = assay: as §2, with “cysts area” for “kidney size”, “365” for “435”, “administration by Hematoxylin-eosin staining based analysis” for “administration”; type: functional, organism-based; details: time 7.0 day
Vasopressin V2 receptor [23] = molecular target: T1, Vasopressin V2 receptor; assay: as §4, with “leftward shift in competition curve” for “residence time”, “nm and measured for 10 to 60 mins” for “nm”; type: cell-based; details: filed as antagonist, time 10-60 min
Vasopressin V2 receptor [24] = molecular target: T1, Vasopressin V2 receptor; assay: Antagonist activity at human vasopressin V2 receptor expressed in CHO cells assessed as inhibition of vasopressin-induced cAMP production at 10 times Ki preincubated for 30 mins followed by two consecutive washouts and irradiated with light at 435 nm in first 30 mins of washout and with light at 365 nm in second 30 mins of washout; type: functional, cell-based; details: filed as antagonist
[25] = molecular target: Serine/threonine-protein kinase mTOR (Homo sapiens) (UniProt P42345); assay: Inhibition of mTOR (unknown origin) assessed as inhibition of p70S6K phosphorylation at 10 times Ki preincubated for 30 mins followed by two consecutive washouts and irradiated with light at 435 nm during two washouts by Western blot analysis
[26] = In vivo inhibition of renal cystogenesis in Pkd1 knock-out autosomal dominant polycystic kidney disease mouse model assessed as disease progression at 5 mg/kg, sc administered once daily for 7 days compound pre-irradiated with light at 365 nm prior to administration; type: functional; set-up: scale not given: the % may be the effect or the level left; details: time 7 day
[27] = molecular target: Serine/threonine-protein kinase mTOR (Homo sapiens) (UniProt P42345); assay: as §5, with “in first 30 mins of washout and with light at 435 nm in second 30 mins of washout” for “during two washouts”
Vasopressin V2 receptor [28] = molecular target: T1, Vasopressin V2 receptor; assay: Antagonist activity at human vasopressin V2 receptor expressed in CHO cells assessed as inhibition of vasopressin induced cAMP production at 10 times Ki preincubated for 30 mins followed by two consecutive washouts and irradiated with light at 435 nm during two washouts; type: functional, cell-based
Vasopressin V2 receptor [29] = molecular target: T1, Vasopressin V2 receptor; assay: Antagonist activity at human vasopressin V2 receptor expressed in CHO cells assessed as inhibition of cAMP production; type: functional, cell-based; details: filed as antagonist
[30] = molecular target: Serine/threonine-protein kinase mTOR (Homo sapiens) (UniProt P42345); assay: Inhibition of mTOR (unknown origin) assessed as inhibition of p70S6K phosphorylation at 10 times Ki preincubated for 30 mins followed by two consecutive washouts and irradiated with light at 435 nm in first 30 mins of washout and with light at 365 nm in second 30 mins of washout by Western blot analysis
Mus musculus [31] = assay: as §2, with “size with fewer cysts” for “size”, “365” for “435”, “administration by Hematoxylin-eosin staining based analysis” for “administration”; type: functional, organism-based; details: time 7.0 day
Mus musculus [32] = assay: In vivo inhibition of renal cystogenesis in Pkd1 knock-out autosomal dominant polycystic kidney disease mouse model assessed as reduction in kidney size at 5 mg/kg, sc administered once daily for 7 days compound pre-irradiated with light at 365 nm prior to administration; type: functional, organism-based; details: time 7.0 day
Vasopressin V2 receptor [33] = molecular target: T1, Vasopressin V2 receptor; assay: Displacement of conivaptan-red fluorescent probe from SNAP-tagged human vasopressin V2 receptor expressed in HEK293 cells assessed as off-rate constant at IC50 by TR-FRET based competition association assay; type: cell-based; details: filed as antagonist
Vasopressin V2 receptor [34] = molecular target: T1, Vasopressin V2 receptor; assay: Displacement of conivaptan-red fluorescent probe from SNAP-tagged human vasopressin V2 receptor expressed in HEK293 cells assessed as on-rate constant at IC50 by TR-FRET based competition association assay; type: cell-based; details: filed as antagonist
Vasopressin V2 receptor [35] = molecular target: T1, Vasopressin V2 receptor; assay: Displacement of conivaptan-red fluorescent probe from SNAP-tagged human vasopressin V2 receptor expressed in HEK293 cells assessed as residence time at IC50 by TR-FRET based competition association assay; type: cell-based; details: filed as antagonist

Cc1cccc(/N=N/c2ccc(C(=O)N3Cc4cccn4Cc4ccccc43)c(Cl)c2)c1
Ki (Vasopressin V2 receptor [1]): 355 nM

O=C(c1ccc(/N=N\c2cccc(-c3ccccc3)c2)cc1Cl)N1Cc2cccn2Cc2ccccc21
Ki (Vasopressin V2 receptor [2]): 663 nM

Cc1ccccc1/N=N\c1ccc(C(=O)N2Cc3cccn3Cc3ccccc32)c(Cl)c1
Ki (Vasopressin V2 receptor [2]): 1240 nM

O=C(c1ccc(/N=N/c2ccc(C(F)(F)F)cc2)cc1Cl)N1Cc2cccn2Cc2ccccc21
Ki (Vasopressin V2 receptor [1]): 589 nM

O=C(c1ccc(/N=N\c2ccc(C(F)(F)F)cc2)cc1Cl)N1Cc2cccn2Cc2ccccc21
Ki (Vasopressin V2 receptor [2]): 5280 nM

Cc1ccc(/N=N/c2ccc(C(=O)N3Cc4cccn4Cc4ccccc43)c(Cl)c2)cc1
Ratio (Vasopressin V2 receptor [3]): 0.95 | inhibition (Mus musculus [4]): Active | Activity [5]: 18.2% | Drug uptake [6]: 10 nM | T1/2 (Kidney [7]): 0.483 h | inhibition [8]: < 40% | TIME (Vasopressin V2 receptor [9]): 0.25 h | inhibition (Vasopressin V2 receptor [10]): Active | K (Vasopressin V2 receptor [11]): 0.068 min⁻¹ | inhibition (Vasopressin V2 receptor [12]; filed as antagonist): Active | inhibition (Kidney [13]): Active | Ki (Vasopressin V2 receptor [1]): 281 nM | K (Vasopressin V2 receptor [14]): 1.1 10^5/M/min

O=C(c1ccc(/N=N/c2ccccc2)cc1Cl)N1Cc2cccn2Cc2ccccc21
Ki (Vasopressin V2 receptor [1]): 289 nM

O=C(c1ccc(/N=N/c2cccc(-c3ccccc3)c2)cc1Cl)N1Cc2cccn2Cc2ccccc21
Ki (Vasopressin V2 receptor [1]): 2180 nM

Cc1ccc(/N=N\c2ccc(C(=O)N3Cc4cccn4Cc4ccccc43)c(Cl)c2)cc1
TIME (Vasopressin V2 receptor [15]): 1.07 h | inhibition [16]: < 40% | K (Vasopressin V2 receptor [17]): 0.017 min⁻¹ | K (Vasopressin V2 receptor [18]): 6.6 10^5/M/min | inhibition (Vasopressin V2 receptor [19]): inactive | inhibition [20]: Active | Ratio (Vasopressin V2 receptor [21]): 1.72 | Drug uptake [6]: 26 nM | inhibition (Mus musculus [22]): Active | T1/2 (Kidney [7]): 1.82 h | Activity (Vasopressin V2 receptor [23]): Active | inhibition (Vasopressin V2 receptor [24]): Active | inhibition [25]: inactive | Activity [26]: 14.6% | inhibition [27]: inactive | inhibition (Vasopressin V2 receptor [28]): inactive | inhibition (Vasopressin V2 receptor [10]): Active | inhibition (Vasopressin V2 receptor [29]): Active | inhibition [30]: inactive | Ki (Vasopressin V2 receptor [2]): 40 nM | inhibition (Vasopressin V2 receptor [12]; filed as antagonist): Active | inhibition (Kidney [13]): Active | inhibition (Mus musculus [31]): Active | inhibition (Mus musculus [32]): Active

Cc1ccc(F)cc1C(=O)Nc1ccc(C(=O)N2Cc3cccn3Cc3ccccc32)c(Cl)c1
K (Vasopressin V2 receptor [33]): 0.06 min⁻¹ | K (Vasopressin V2 receptor [34]): 4.6 10^7/M/min | TIME (Vasopressin V2 receptor [35]): 0.3 h | inhibition (Vasopressin V2 receptor [28]): inactive | inhibition (Vasopressin V2 receptor [12]): inactive
